{"source": "patent US9920295B2", "about": "“Bioreactor for isolation of rare cells and methods of use” (The Trustees of the University of Pennsylvania, priority 2012, dated 2018)", "format_in_all_cases": "cell-based, human", "key": {"MKs [1]": {"system": "MKs", "assay": "Proplatelet extension quantification", "method": "Three-dimensional collagen gels embedded with cells were prepared as previously published (Rhee et al., 2007, Proc Natl Acad Sci USA, 104:5425-5430). BM-derived cells were added to the collagen solution prepared by neutralizing 2.0 mg/mL collagen-I (BD Biosciences) with HSC expansion media adjusted to appropriate the pH, so that cells could be embedded to the polymerized matrices (1×10^5 cells/mL). Next, 200 μL of this collagen mixture was placed in a well of 24-well plate and incubated at 37° C. 5% CO2 overnight before being formaldehyde-fixed and processed for microscopic analysis. Washing steps were done gently using pipette to minimize disturbance of gels. After completion of staining, matrices were released from the plate by gentle shaking and transferred to glass slides in mounting medium with either a spatula or gentle pipetting.\nCells on coverslips were fixed with 4% paraformaldehyde, followed by permeabilization with 0.5% Triton X-100 in PBS for 15 min and blocking with 1% BSA in PBS for 30 min. Samples were then stained with primary antibodies (1:100 for all antibodies used) overnight at 4° C. After washing, staining with appropriate Alexa-conjugated secondary antibodies (1:400) was performed for 45 min at room temperature. Cells were washed three times with PBS and mounted in ProLong Gold antifade medium (Invitrogen). Samples were then analyzed by fluorescence microscopy. For quantitative analysis, pictures from each experiment were taken under a defined set of exposure times on the same day with 40× objectives. Intensity of labeled NMM-II proteins for each cell was analyzed by ImageJ by subtracting a background, defining a threshold of cell boundary, followed by calculation of mean intensity. At least 10 images from each experiment were analyzed from three independent experiments. For proplatelet quantification, the process length from each cell was measured by manual tracing with ImageJ. Only processes above detection limit (≥1 μm in length from cell body) were considered for statistical analysis."}, "MKs [2]": {"system": "MKs", "assay": "In vitro platelet generation from MKs", "settings": "20 μM for 3 d, then 3 d of no drug", "method": "For platelet-activation assays, platelet-sided fraction isolated from either MK culture or NSG blood was resuspended in Tyrode's buffer supplemented with Mg^2+ and Ca^2+, and incubated with indicated agonists for 15 min at 37° C., followed by staining with FITC-conjugated anti-human P-selectin or PAC-1 antibody (BD Bioscience), APC-conjugated anti-human CD41, and in the case of xenograft samples, PE-conjugated anti-mouse CD41 for 15 min at room temperature, followed by fixation with 1.5% paraformaldehyde. Antibody-stained samples were then analyzed by flow cytometry. Platelet number was evaluated by mixing each sample with a defined number (˜10,000 beads per sample) of APC-conjugated beads (BD Bioscience). The number of platelets per sample was evaluated by: number of CD41^+ events/number of APC-bead events multiplied by total known number of APC-bead added per sample.\nTransplantation of uncultured human cord-blood CD34^+ cells in immuno-deficient nonobese diabetic (NOD)/SCID mice has been shown previously to yield sustained generation of human platelets (Salles et al., 2009, Blood, 114:5044-5051), but the intravenous delivery route used to date requires a large number of cells for homing and engraftment. Intrabone marrow transplantation was instead used here to more rapidly expose injected cells to the marrow microenvironment per FIG. 1A. […]"}, "[3]": {"system": "BM CD34+-derived cells (CD41+ MK)", "assay": "Ploidy analysis of CD34+-derived cells treated with contractility inhibitors (flow cytometry)", "settings": "for maximal polyploid cell number: scaled to 10,000 initial cell input", "method": "Fresh purified bone marrow (BM)-derived humanCD34^+ cells were obtained from either the Penn Xenograft Core Facility or AllCells. Cells from at least 10 different donors were used in this study. Purity of the samples (>98%) was confirmed by flow cytometry with monoclonal antibody against human CD34 conjugated to phycoerythrin (PE). All experiments were performed in hematopoietic stem cell (HSC) expansion media (StemLine-II; Sigma) supplemented with 1× antibiotics, and the following human recombinant cytokines SCF (100 ng/mL) and Tpo (100 ng/mL). In some occasions, the media was also supplemented by G-CSF (100 ng/mL). All cytokines were purchased from R&D Systems. After cells were cultured for 4 days, they were treated with different doses of cellular contractility inhibitors, including (±)-blebbistatin (EMDBiosciences), reversine, ML-7, and Y-27632 (Sigma) for indicated durations of up to 3 days. Unfortunately, longer exposure to drug proves toxic even to polyploidy cells under the present culture conditions. Cells were then resuspended in PBS/2% FBS medium and subjected to ploidy analysis: cells were stained with CD41-FITC (BD Biosciences) at room temperature for 30 min, followed by Hoechst 33342 at 37° C. for 30 min. Then cells were stained with Annexin-V-PE (BD Biosciences) in the Annexin-V staining medium, followed by addition of 7-AAD. Stained cells were subjected to flow cytometric analysis (LSR-II; BD Biosciences): only viable cells (7-AAD^− and Hoechst 33342^+) were analyzed for ploidy. Cells with the DNA content of 8 N or higher were considered polyploid. To quantify absolute number of polyploid cells, viable cell number was counted before flow cytometry by Trypan blue exclusion, and this number was multiplied by percentages of each DNA compartment and subpopulations. Each multiplied number was then normalized by initial cell input number before drug treatment in culture."}, "[4]": {"system": "CD34+-derived cells (CFU-GM, BFU-E)", "assay": "Colony forming assay", "method": "1000-3000 CD34^+-derived cells were seeded into methylcellulose containing media (MethoCult H4434, StemCell Technologies) supplemented with SCF, GM-CSF, IL-3, Epo. They were cultured for 14 days and colonies were scored at 10× magnification based on the published morphological criteria by StemCell Technoloigies. Colony forming content was normalized per 10,000 cells seeded."}}, "note": "pEC50, pIC50, pKi: −log10 of the molar value. Read-outs that look alike come from different tables or passages of the source."}
{"smiles": "Cc1ccc2c(c1)C(=O)C1(O)CCN(c3ccccc3)C1=N2", "note": "(racemic) [blebbistatin, (±)-blebbistatin]", "values": [{"measurement": "increase in mean length of proplatelet extensions", "setting": "MKs [1]; cells grown on plastic", "result": "approximately threefold"}, {"measurement": "effect on proplatelet extensions", "setting": "MKs [1]; cells in 3D collagen gels or on stiff, osteoid-like matrices", "result": "no effect"}, {"measurement": "average proplatelet extension velocity", "setting": "MKs [1]; live imaging", "result": "~1", "unit": "μm/min"}, {"measurement": "in vitro platelets per CD41+ cell vs untreated MKs", "setting": "MKs [2]", "result": 2.5, "unit": "fold"}, {"measurement": "drug dose found to be toxic", "setting": "[3]", "result": "~100", "unit": "µM"}, {"measurement": "enrichment of mature polyploid MKs", "setting": "[3]", "result": "~10", "unit": "folds"}, {"measurement": "doubling time of polyploid cell generation", "setting": "[3]; 20 μM", "result": 18.2, "unit": "h"}, {"measurement": "pKi", "setting": "[3]; MK polyploidization / progenitor depletion in cells, read-out: inhibition constant Ki", "result": "~5.12"}, {"measurement": "maximal polyploid cell number", "setting": "[3]; SCF+Tpo CD41+", "result": 278}, {"measurement": "maximal polyploid cell number", "setting": "[3]; SCF+Tpo CD41−", "result": 1}, {"measurement": "maximal polyploid cell number", "setting": "[3]; SCF+Tpo+G-CSF CD41+", "result": 141}, {"measurement": "maximal polyploid cell number", "setting": "[3]; SCF+Tpo+G-CSF CD41−", "result": 352}, {"measurement": "pEC50", "setting": "[3]; dose-response, n≥3 donors, read-out: MK polyploid cell number EC50", "result": 5.12}, {"measurement": "pIC50", "setting": "[3]; treatment for 3 d, with or without G-CSF, read-out: CD41+ MK and non-MK polyploid cell number IC50", "result": 5.12}, {"measurement": "concentration under which BFU-E and CFU-GEMM numbers are not changed", "setting": "[4]", "result": "~15", "unit": "µM"}, {"measurement": "pIC50", "setting": "[4]; SCF and Tpo, n≥3 donors, read-out: BFU-E IC50", "result": 4.73}, {"measurement": "pIC50", "setting": "[4]; SCF and Tpo, n≥3 donors, read-out: CFU-GM IC50", "result": 4.98}, {"measurement": "concentration of maximum BFU-E relative to CFU-GM ratio", "setting": "[4]; absence of Epo", "result": 12.5, "unit": "µM"}, {"measurement": "pIC50", "setting": "[4]; absence of Epo, n=3 donors, read-out: BFU-E relative to CFU-GM IC50", "result": 5.00}, {"measurement": "increase of BFU-E to CFU-GM ratio", "setting": "[4]; at 12.5 μM", "result": 2, "unit": "fold"}]}
